Values joined by “and” are separate entries in the source; they are usually repeats but may differ in a detail not shown here. Identical values can stand only once. Like-named read-outs stand apart in the source and are kept apart here.
Tests used:
[1] = Metabolic stability / metabolite detection in human liver microsomes
Method: (§1) Pooled male and female human and rat liver microsomes were obtained commercially from BD Bioscience (San Jose, CA) and Xenotech (Lenexa, KS), respectively. […] Reactions were started by the addition of microsomes and stopped by removing 100 μL aliquots at each time point. […] As positive control, 10μM midazolam was incubated with microsomes for 0, 15, 30 and 60 min in a 37°C water bath and with heat-inactivated microsomes for 0 and 60 min. […] All assays were done in duplicates.
(§2) Reactions were stopped by removing 150 μL aliquots at 0, 5, 15, and 30 min and mixing with acetonitrile containing hexyl nicotinate as internal standard. […] Samples were analyzed in full-scan mode with MS/MS product-ion spectra generated for detected metabolite masses. This was performed using the EMS (enhanced MS scan) mode of the mass spectrometer with IDA (independent data acquisition) experiments to produce MS/MS product-ion spectra for masses detected at sufficient intensities. […] All assays were done in duplicate.

[2] = Plasma and brain 4R concentrations and pharmacokinetics in male rats; format: in vivo, Sprague-Dawley rat; conditions: for Kp at 1.5 h: brain and plasma, 90 min after dose, read-out: Ratio Cmax brain/ plasma; for Kp at 1.5 h / Cmax / Tmax / half-life: 6 mg/kg; for bioavailability: read-out: F (bioavailability)
Method: Twelve-week old male Sprague-Dawley rats weighing 307–373 g at the time of the experiment were used. […] The dosing volume of injection was 0.5 mL/kg for the i.m. and s.c. routes and 5 mL/kg for the i.v. route. […] Animal procedure for housing and care was performed according to the National Research Council (NRC) Guide for the Care and Use of Laboratory Animals and the Animal Welfare Standards incorporated in 9 Code of Federal Regulations Part 3, 1991. The animals had 12 hr light/dark cycles and at least 10 room volumes per hour with no recirculation of air. Purina certified rodent chow and water was provided ad libitum.
Blood samples were collected via a jugular vein catheter at each of the following time points: 2, 5, 10, 20, 45, 60, 90 min and 2, 4, 8 hr. […] The samples were vortexed, centrifuged and the supernatants removed. The supernatants were evaporated to dryness and reconstituted in a solvent mixture containing 50/50/0.1 acetronile/water/formic acid (v/v/v) with 10ng/mL hexyl nicotinate as internal standard. […] Rat brains were collected at 10, 60 or 90 min, and 8 hr post dose and frozen at -70°C. On the day of the analysis, the brains were homogenized in PBS using 4 parts phosphate buffer and 1 part brain (g/g). […] The lower limit of quantitation of the LC-MS/MS was 20.0 ng/ml for plasma and 100 ng/g for brain.
Parameters were calculated for each individual animal. The peak concentration in plasma (Cmax) and the corresponding time of maximum concentration (Tmax) were determined directly from the data. The area under the plasma concentration-time curve (AUC) from time 0–8 hr was calculated using the log/linear trapezoidal (i.v. route) or linear up/log down trapezoidal (i.m. and s.c routes) methods. The dose administered was input to the program as mg/kg, and as a result no additional corrections for individual body weights of the animals were necessary. The following parameters and constants were determined for the three groups: observed maximum plasma concentration (Cmax), time to maximum plasma concentration (Tmax), area under the plasma concentration-time curve to the last time point (AUClast), area under the plasma concentration-time curve extrapolated to infinity (AUCinf), terminal phase elimination half-life (t1/2). Bioavailability (F) after i.m. and s.c. administration was calculated using their respective AUCinf values divided by the AUCinf value of the i.v. group.

[3] = 4R plasma stability in human plasma; format: in vitro ADME; conditions: 10 μM 4R, 0-60 min at 37°C
Method: The samples were centrifuged at 18,000 x g for 10 min and the supernatants (100–250 μL) transferred to an HPLC vial containing 900 μl of 60% acetonitrile. The LC-MS/MS analysis was carried out using a high-performance liquid chromatography system consisting of a Shimadzu LC-20AD pump, (Shimadzu Scientific Instruments, Columbia, MA), and a CTC analytics PAL autosampler operating at 10°C (Leap technologies, Carrboro, NC). The MS instrument used was a 4000 QTrap triple quadrupole tandem mass spectrometer (Applied Biosystems/MDS Sciex, Foster City, CA). Electrospray ionization in positive ion mode (ESI+) was used. […] All samples were assayed in duplicate.

[4] = 4R plasma stability in rat plasma; format: in vitro ADME; conditions: 10 μM 4R
Method: The samples were centrifuged at 18,000 x g for 10 min and the supernatants (100–250 μL) transferred to an HPLC vial containing 900 μl of 60% acetonitrile. The LC-MS/MS analysis was carried out using a high-performance liquid chromatography system consisting of a Shimadzu LC-20AD pump, (Shimadzu Scientific Instruments, Columbia, MA), and a CTC analytics PAL autosampler operating at 10°C (Leap technologies, Carrboro, NC). The MS instrument used was a 4000 QTrap triple quadrupole tandem mass spectrometer (Applied Biosystems/MDS Sciex, Foster City, CA). Electrospray ionization in positive ion mode (ESI+) was used. The detection of 4R was performed using the multiple reaction monitoring (MRM) mode. […] All samples were assayed in duplicate.

[5] = Solubility of 4R in dosing vehicle; format: physicochemical; conditions: 12 mg/mL in 10% DMSO and 90% PEG400, room temperature
Method: The solution was sterile filtered using a Millipore Millex-GS 0.22 μm syringe filter. Dose formulations were prepared on Day 1 prior to dose administration and were maintained at room temperature until administration to the animals.

[6] = Metabolic stability / metabolite detection in rat liver microsomes
Method: as §1, §2

[7] = 10 μM, 5 min, metabolite detection experiment
[8] = 10 μM, 15 min, metabolite detection experiment
[9] = 50 μM, 30 min, metabolite detection experiment
[10] = both, human, liver microsomes, pH 7.4
[11] = male, Sprague-Dawley, rat, plasma, im, 6 mg/kg i.m.
[12] = male, Sprague-Dawley, rat, plasma, iv, 6 mg/kg i.v.
[13] = male, Sprague-Dawley, rat, plasma, sc, 6 mg/kg s.c.
[14] = both, rat, liver microsomes, pH 7.4
[15] = 10 μM, heat-inactivated microsomes, 60 min

C/C1=C\[C@H](O)C[C@@](C)(O)/C=C/C(C(C)C)CC/C(C)=C/CC1 (stereo partly drawn) [4R, (1S, 2E, 4R, 6R, 7E, 11E)-cembra-2,7,11-triene-4,6-diol]
percent 4R remaining [1, 7]: 18% | percent 4R remaining [1, 8]: less than 2% | mean percent 4R remaining [1, 9]: ≤ 7.3% | remaining at 5 min, 1 μM [1, 10]: 8% | remaining at 5 min, 10 μM [1, 10]: 15% | remaining at 0.25 h, 1 μM [1, 10]: 4% | remaining at 0.25 h, 10 μM [1, 10]: < 2% | Brain Cmax ([2]; 6 mg/kg i.m.): 329 ng/g and 329 ± 50 ng/g | time to maximum brain level ([2]; 6 mg/kg i.m.): 90 min | plasma 4R level ([2]; 6 mg/kg i.m., by 8 hr post dose): below the LLOQ | brain Cmax, times higher than s.c. or i.m. ([2]; 6 mg/kg i.v.): 20 times | Brain Cmax ([2]; 6 mg/kg i.v., at 10 min): 6516 ng/g and 6516 ± 1091 ng/g | time to reach the brain ([2]; 6 mg/kg i.v., post dose): ≤ 10 min | Brain Cmax ([2]; 6 mg/kg s.c.): 323 ng/g and 323 ± 90 ng/g | time to maximum brain level ([2]; 6 mg/kg s.c.): 90 min | Brain Cmax ([2]; 6 mg/kg s.c. or i.m.): 300 to 400 ng/mL | maximum mean 4R brain level ([2]; 6 mg/kg s.c., at 90 min): 323 ± 90 | plasma 4R level ([2]; 6 mg/kg s.c., by 8 hr post dose): below the LLOQ | Kp at 1.5 h ([2]; male, Sprague-Dawley, rat, im, 6 mg/kg i.m.): 2.49 | Kp at 1.5 h ([2]; male, Sprague-Dawley, rat, sc, 6 mg/kg s.c.): 2.48 | concentration at 1 hr ([2]; male, Sprague-Dawley, rat, brain, intravenous, 6 mg/kg i.v., at 1 hr post dose): 3000 ± 771 ng/g | AUC(0-inf) ([2]; male, Sprague-Dawley, rat, im, 6 mg/kg i.m., plasma): 395 ± 138 ng·h/mL | AUC(0-inf) ([2]; male, Sprague-Dawley, rat, iv, 6 mg/kg i.v., plasma): 1140 ± 224 ng·h/mL | Cmax [2, 11]: 163 ng/mL | Tmax [2, 11]: ~1 h | half-life ([2]; male, Sprague-Dawley, rat, plasma, im, 6 mg/kg i.m., male rats, read-out: t1/2 (converted)): ~1.5 h | bioavailability ([2]; male, Sprague-Dawley, rat, plasma, intramuscular, 6 mg/kg i.m., AUCinf relative to i.v.): 35% | concentration at 1 hr ([2]; male, Sprague-Dawley, rat, plasma, intramuscular, 6 mg/kg i.m., at 1 hr): 157 ± 86 ng/mL | concentration at 5 min ([2]; male, Sprague-Dawley, rat, plasma, intravenous, 6 mg/kg i.v., at 5 min): 975 ± 104 ng/mL | concentration at 8 hr ([2]; male, Sprague-Dawley, rat, plasma, intravenous, 6 mg/kg i.v., by 8 hr post dose): < 20 ng/mL | Cmax [2, 12]: 1020 ± 49 ng/mL | half-life ([2]; male, Sprague-Dawley, rat, plasma, iv, 6 mg/kg i.v., male rats, read-out: t1/2 (converted)): 0.6 ± 0.1 h | half-life ([2]; male, Sprague-Dawley, rat, plasma, iv, 6 mg/kg i.v., read-out: elimination t1/2): 0.6 h | bioavailability [2, 12]: 100% | Cmax [2, 13]: 138 ± 28 ng/mL | Tmax [2, 13]: 1 h | half-life ([2]; male, Sprague-Dawley, rat, plasma, sc, 6 mg/kg s.c., male rats, read-out: t1/2 (converted)): ~1.5 h | bioavailability ([2]; male, Sprague-Dawley, rat, plasma, subcutaneous, 6 mg/kg s.c., AUCinf relative to i.v.): 41% | concentration at 1 hr ([2]; male, Sprague-Dawley, rat, plasma, subcutaneous, 6 mg/kg s.c., at 1 hr): 134 ± 34 ng/mL | AUC(0-inf) ([2]; male, Sprague-Dawley, rat, sc, 6 mg/kg s.c., plasma): 466 ± 56 ng·h/mL | mean percent 4R content versus control [3]: 96–103% | mean percent 4R content versus control ([4]; 0-60 min at 37°C): 97–101% | mean percent 4R content ([4]; 60 min at room temperature): 96% | appearance of 4R formulation (solubility) [5]: clear colorless solution | percent 4R remaining [6, 7]: 34% | percent 4R remaining [6, 8]: less than 2% | mean percent 4R remaining [6, 9]: ≤ 7.3% | remaining at 5 min, 1 μM [6, 14]: 19% | remaining at 5 min, 10 μM [6, 14]: 29% | remaining at 0.25 h, 1 μM [6, 14]: 4% | remaining at 0.25 h, 10 μM [6, 14]: < 2%

Cc1ncc2n1-c1ccc(Cl)cc1C(c1ccccc1F)=NC2 [MDZ, Midazolam, reference compound]
percent remaining with heat-inactivated microsomes [1, 15]: 89% | percent remaining with heat-inactivated microsomes [6, 15]: 108%
